The source of these data is patent US20080152736A1, “Lipid Fraction of Nigella Sativa L. Seeds” (priority 2004, published 2008).

One assay concerns Corynebacterium pyogenes. Nature of the assay: In vitro antimicrobial comparison, bore method (zone of inhibition). It counts as cell-based. To be noted: Ampicillin 1: g/mg; mean ± S.E. of 4 observations. The method, then:
(§1) The comparative antibacterial activity of ampicillin (1 microg/mg) and the Nigella sativa L. lipid fraction (1 mg/ml) against Staphylococcus pyogenes, Corynebacterium pyogenes and Salmonella typhi murium was performed in vitro using the bore method described by Cooper and Woodman (1964).

In the next assay the test system is Salmonella typhi murium. The description is as above. It counts as cell-based. Conditions: Ampicillin 1: g/mg; mean ± S.E. of 4 observations. The procedure: as §1
A further assay concerns Staphylococcus pyogenes. Described as above. It counts as cell-based. Conditions: Ampicillin 1: g/mg; mean ± S.E. of 4 observations. The method, then: as §1
The subject of assay [1] is guinea pigs exposed to histamine aerosol (0.25%). The assay is described as follows: Prophylactic anti-asthmatic effect, preconvulsive time on histamine aerosol. In kind it is in vivo. To be noted: ketotifen 50: g/kg, treated for 21 days; histamine (0.25%) aerosol. The procedure: This example explains in vivo studies to evaluate the prophylactic (protective) anti-asthmatic effect of the Nigella sativa L. lipid fraction of the present invention. The prophylactic anti-asthmatic effect was evaluated in vivo by measurement of the preconvulsive time in guinea pigs exposed to histamine aerosol (0.25%).
Guinea pigs were divided into three groups with 8 animals per group. The first group received saline with injection to serve as negative control. The second group received ketotifen, which is the standard treatment to serve as positive control. The third group received 200 mg/kg each of the Nigella sativa L. lipid fraction of the present invention.
Animals in all groups were treated for 21 days following, after which they were exposed to histamine (0.25%) aerosol and the preconvulsive time was recorded.

The subject of assay [2] is sensitized guinea pigs exposed to ova albumin inhalation. Nature of the assay: Tachypnea protective effect in ova albumin sensitized animals. In kind it is in vivo. To be noted: ketotifen 50: g/kg, treated for 21 days. The method, then:
This experiment was an in vivo study to evaluate the tachypnea (protective) effect of the Nigella sativa L. lipid fraction of the present invention. The second protocol involved sensitized animals. Animals were sensitized by injecting ova albumin in two doses 100 mg each (S.C. and I.P., simultaneously). Animals were resensitized 15 days later. Guinea pigs were divided into three groups with 8 animals per group. The first group received a saline injection to serve as negative control. The second group received ketotifen which is the standard treatment to serve as positive control. The third group received 200 mg/kg each of the Nigella sativa L. lipid fraction of the present invention. Animals in all groups were treated for 21 days following which they were exposed to ova albumin inhalation and time to onset of tachypnea was recorded as shown in the table below.

The conditions of assay [3]: 16 published human studies, total of 590 subjects; cited from earlier work.

As for `CC1(C)S[C@@H]2[C@H](NC(=O)[C@H](N)c3ccccc3)C(=O)N2[C@H]1C(=O)O` [Ampicillin, ampicillin], the figures for the “Diameter of Zone of inhibition” value in the assay with Corynebacterium pyogenes, in the assay with Salmonella typhi murium and with Staphylococcus pyogenes were 44.7 ± 0.8 mm, 13.1 ± 0.2 mm and 26.7 ± 0.3 mm, respectively.

For the compound `CN1CCC(=C2c3ccccc3CC(=O)c3sccc32)CC1` [ketotifen], in assay [1], the “% of Prophylaxis (Protection)” value turned out to be 82.85%. In addition, the “% of Prophylaxis” value in assay [2] was 44.4%.

For phytosterol, in assay [3], the “average reduction in total cholesterol” value is 10% and the “reduction in LDL cholesterol levels” value is recorded as 13%.
